Where two headings read alike, the source gives them in different places.
Biological target: T1, recombinant human WRN (Homo sapiens, UniProt Q14191)
T1 construct: purchased BPS 101264
Assay: Inhibition of WRN enzyme activity (ATPase), ADP-Glo Kinase Assay
Assay type: biochemical
Conditions: WRN protein 5 nM, Flap 0.1 nM, ATP 30 µM
In short: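 Recombinant human WRN (5 nM) was preincubated with compound (1000–0.004 nM) for 15 min at room temperature. Flap26 5'-flap DNA (0.1 nM) and 30 µM ATP were then added for 10 min in Tris pH 7.5, MgCl2, NaCl, BSA, Pluronic buffer. ADP was detected by ADP-Glo luminescence, and IC50 was obtained by nonlinear regression versus a 0.1% DMSO control.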

T1 sequence (Q14191 whole entry): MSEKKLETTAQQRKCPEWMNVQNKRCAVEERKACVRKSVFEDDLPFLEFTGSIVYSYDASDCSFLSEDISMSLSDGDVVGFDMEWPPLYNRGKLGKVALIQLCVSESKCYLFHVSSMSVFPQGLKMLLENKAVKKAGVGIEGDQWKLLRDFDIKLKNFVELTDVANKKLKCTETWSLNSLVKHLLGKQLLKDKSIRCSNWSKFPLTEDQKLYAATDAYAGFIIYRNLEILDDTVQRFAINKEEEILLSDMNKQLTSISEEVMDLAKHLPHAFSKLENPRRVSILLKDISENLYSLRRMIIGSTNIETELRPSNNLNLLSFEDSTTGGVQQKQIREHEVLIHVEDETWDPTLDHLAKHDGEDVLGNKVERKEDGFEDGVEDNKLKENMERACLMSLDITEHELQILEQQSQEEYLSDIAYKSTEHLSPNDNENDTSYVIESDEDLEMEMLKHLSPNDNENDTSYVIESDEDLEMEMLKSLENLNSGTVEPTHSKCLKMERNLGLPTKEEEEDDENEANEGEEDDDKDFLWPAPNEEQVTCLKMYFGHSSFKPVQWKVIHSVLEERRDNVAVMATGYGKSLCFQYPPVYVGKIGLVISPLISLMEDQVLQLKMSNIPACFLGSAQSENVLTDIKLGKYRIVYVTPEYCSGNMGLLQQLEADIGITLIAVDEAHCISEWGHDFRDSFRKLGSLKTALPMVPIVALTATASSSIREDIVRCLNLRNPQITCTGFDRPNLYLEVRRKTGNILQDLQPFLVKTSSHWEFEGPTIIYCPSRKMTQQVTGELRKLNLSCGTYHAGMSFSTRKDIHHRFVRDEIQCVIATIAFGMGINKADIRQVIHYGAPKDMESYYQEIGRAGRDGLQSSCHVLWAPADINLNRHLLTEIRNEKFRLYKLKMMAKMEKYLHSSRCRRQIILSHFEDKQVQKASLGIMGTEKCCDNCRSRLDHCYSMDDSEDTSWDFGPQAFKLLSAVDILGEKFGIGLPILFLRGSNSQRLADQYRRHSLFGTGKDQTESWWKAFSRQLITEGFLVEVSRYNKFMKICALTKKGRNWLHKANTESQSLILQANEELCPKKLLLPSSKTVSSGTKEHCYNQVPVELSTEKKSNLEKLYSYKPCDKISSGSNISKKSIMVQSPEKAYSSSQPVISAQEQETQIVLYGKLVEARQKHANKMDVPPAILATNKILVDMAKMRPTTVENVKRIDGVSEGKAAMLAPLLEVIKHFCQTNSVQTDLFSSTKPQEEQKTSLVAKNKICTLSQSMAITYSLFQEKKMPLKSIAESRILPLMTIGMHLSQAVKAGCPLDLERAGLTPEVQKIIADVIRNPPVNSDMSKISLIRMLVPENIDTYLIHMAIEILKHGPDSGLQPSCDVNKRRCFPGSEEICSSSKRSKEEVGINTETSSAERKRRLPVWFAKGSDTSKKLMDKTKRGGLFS

IC50 (read-out: IC50) [nM]	Compound	IC50 [nM]
1 to 100	CCc1c(N2CCN(C(=O)c3ncnc(C)c3O)CC2)c(=O)n2nc(-c3ccc4c(c3)CC(=O)N4)nc2n1CC(=O)Nc1ccc(C(F)(F)F)cc1Cl [Example 141, N-(2-chloro-4-(trifluoromethyl)phenyl)-2-(5-ethyl-6-(4-(5-hydroxy-6-methylpyrimidine-4-carbonyl)piperazin-1-yl)-7-oxo-2-(2-oxoindolin-5-yl)-[1,2,4]triazolo[1,5-a]pyrimidin-4(7H)-yl)acetamide]	–
1 to 100	CCc1c(N2CCN(C(=O)c3ncnc(C)c3O)CC2)c(=O)n2nc(C3=CC4(CCNCC4)C3)nc2n1CC(=O)Nc1ccc(C(F)(F)F)cc1Cl [Example 143, N-(2-chloro-4-(trifluoromethyl)phenyl)-2-(5-ethyl-6-(4-(5-hydroxy-6-methylpyrimidine-4-carbonyl)piperazin-1-yl)-7-oxo-2-(7-azaspiro[3.5]non-1-en-2-yl)-[1,2,4]triazolo[1,5-a]pyrimidin-4(7H)-yl)acetamide]	–
1 to 100	CCc1c(N2CCN(C(=O)c3ncnc(C)c3O)CC2)c(=O)n2nc(C3=CC4CN(C)CC4C3)nc2n1CC(=O)Nc1ccc(C(F)(F)F)cc1Cl (stereo not shown) [Example 144, N-(2-chloro-4-(trifluoromethyl)phenyl)-2-(5-ethyl-6-(4-(5-hydroxy-6-methylpyrimidine-4-carbonyl)piperazin-1-yl)-2-(2-methyl-1,2,3,3a,4,6a-hexahydrocyclopenta[c]pyrrol-5-yl)-7-oxo-[1,2,4]triazolo[1,5-a]pyrimidin-4(7H)-yl)acetamide]	–
1 to 100	CCc1c(N2CCN(C(=O)c3ncnc(C)c3O)CC2)c(=O)n2nc(C3=CC4CN(C(C)=O)CC4C3)nc2n1CC(=O)Nc1ccc(C(F)(F)F)cc1Cl (stereo not shown) [Example 145, 2-(2-(2-Acetyl-1,2,3,3a,4,6a-hexahydrocyclopenta[c]pyrrol-5-yl)-5-ethyl-6-(4-(5-hydroxy-6-methylpyrimidine-4-carbonyl)piperazin-1-yl)-7-oxo-[1,2,4]triazolo[1,5-a]pyrimidin-4(7H)-yl)-N-(2-chloro-4-(trifluoromethyl)phenyl)acetamide]	–
1 to 100	CCc1c(N2CCN(C(=O)c3ncnc(C)c3O)CC2)c(=O)n2nc(C3=CC4CNCC4C3)nc2n1CC(=O)Nc1ccc(S(F)(F)(F)(F)F)cc1 (stereo not shown) [Example 146, 2-(5-Ethyl-2-(1,2,3,3a,4,6a-hexahydrocyclopenta[c]pyrrol-5-yl)-6-(4-(5-hydroxy-6-methylpyrimidine-4-carbonyl)piperazin-1-yl)-7-oxo-[1,2,4]triazolo[1,5-a]pyrimidin-4(7H)-yl)-N-(4-(pentafluoro-λ^6-sulfaneyl)phenyl)acetamide]	–
1 to 100	CCc1c(N2CCN(C(=O)c3ncnc(C)c3O)CC2)c(=O)n2nc(-c3ccc4c(c3)CCO4)nc2n1CC(=O)Nc1ccc(SC(F)F)cc1Cl [Example 148, N-(2-chloro-4-((difluoromethyl)thio)phenyl)-2-(2-(2,3-dihydrobenzofuran-5-yl)-5-ethyl-6-(4-(5-hydroxy-6-methylpyrimidine-4-carbonyl)piperazin-1-yl)-7-oxo-[1,2,4]triazolo[1,5-a]pyrimidin-4(7 H)-yl)acetamide]	–
1 to 100	CCc1c(N2CCN(C(=O)c3ncncc3O)CC2)c(=O)n2nc(C3=CC4COCC4C3)nc2n1CC(=O)Nc1ccc(C(F)(F)F)cc1Cl (stereo not shown) [Example 160, N-(2-chloro-4-(trifluoromethyl)phenyl)-2-(5-ethyl-6-(4-(5-hydroxypyrimidine-4-carbonyl)piperazin-1-yl)-7-oxo-2-(3,3a,4,6a-tetrahydro-1H-cyclopenta[c]furan-5-yl)-[1,2,4]triazolo[1,5-a]pyrimidin-4(7H)-yl)acetamide]	–
1 to 100	CCc1c(N2CCN(C(=O)c3ncnc(C)c3O)CC2)c(=O)n2nc(C3=CCCCOC3)nc2n1CC(=O)Nc1ccc(SC(F)(F)F)cc1Cl [Example 165, N-(2-chloro-4-((trifluoromethyl)thio)phenyl)-2-(5-ethyl-6-(4-(5-hydroxy-6-methylpyrimidine-4-carbonyl)piperazin-1-yl)-7-oxo-2-(2,5,6,7-tetrahydrooxepin-3-yl)-[1,2,4]triazolo[1,5-a]pyrimidin-4(7H)-yl)acetamide]	–
1 to 100	[2H]C([2H])([2H])Sc1ccc(NC(=O)Cn2c(CC)c(N3CCN(C(=O)c4ncnc(C)c4O)CC3)c(=O)n3nc(C4=CCCCOC4)nc23)c(Cl)c1 [Example 166, N-(2-chloro-4-((methyl-d3)thio)phenyl)-2-(5-ethyl-6-(4-(5-hydroxy-6-methylpyrimidine-4-carbonyl)piperazin-1-yl)-7-oxo-2-(2,5,6,7-tetrahydrooxepin-3-yl)-[1,2,4]triazolo[1,5-a]pyrimidin-4(7H )-yl)acetamide]	–
1 to 100	CCc1c(N2CCN(C(=O)c3ncnc(C)c3O)CC2)c(=O)n2nc(-c3ccc4c(c3)CCO4)nc2n1CC(=O)Nc1cc2ccsc2cc1C [Example 168, 2-(2-(2,3-dihydrobenzofuran-5-yl)-5-ethyl-6-(4-(5-hydroxy-6-methylpyrimidine-4-carbonyl)piperazin-1-yl)-7-oxo-[1,2,4]triazolo[1,5-a]pyrimidin-4(7H)-yl)-N-(6-methylbenzo[b]thiophen-5-yl)ac etamide]	–
1 to 100	CCc1c(N2CCN(C(=O)c3ncnc(C)c3O)CC2)c(=O)n2nc(-c3ccc4nc(N5CCOCC5)sc4c3)nc2n1CC(=O)Nc1ccc(C(F)(F)F)cc1Cl [Example 171, N-(2-chloro-4-(trifluoromethyl)phenyl)-2-(5-ethyl-6-(4-(5-hydroxy-6-methylpyrimidine-4-carbonyl)piperazin-1-yl)-2-(2-morpholinobenzo[d]thiazol-6-yl)-7-oxo-[1,2,4]triazolo[1,5-a]pyrimidin-4(7H)-yl)acetamide]	–
1 to 100	CCc1c(N2CCN(C(=O)c3ncnc(C)c3O)CC2)c(=O)n2nc(C#CC3CC3)nc2n1CC(=O)Nc1ccc(C(F)(F)F)cc1Cl [Example 173, N-(2-chloro-4-(trifluoromethyl)phenyl)-2-(2-(cyclopropylethynyl)-5-ethyl-6-(4-(5-hydroxy-6-methylpyrimidine-4-carbonyl)piperazin-1-yl)-7-oxo-[1,2,4]triazolo[1,5-a]pyrimidin-4(7H)-yl)acetamide]	–
1 to 100	CCc1c(N2CCN(C(=O)c3ncnc(C)c3O)CC2)c(=O)n2nc(C3=CC4CC4C3)nc2n1CC(=O)Nc1ccc(SC(F)(F)F)cc1 (stereo not shown) [Example 177, 2-(2-(bicyclo[3.1.0]hex-2-en-3-yl)-5-ethyl-6-(4-(5-hydroxy-6-methylpyrimidine-4-carbonyl)piperazin-1-yl)-7-oxo-[1,2,4]triazolo[1,5-a]pyrimidin-4(7H)-yl)-N-(4-((trifluoromethyl)thio)phenyl)ac etamide]	–
< 1	CCc1c(N2CCN(C(=O)c3ncnc(C)c3O)CC2)c(=O)n2nc(-c3cc4c(s3)CCN(CC(F)(F)F)C4)nc2n1CC(=O)Nc1ccc(C(F)(F)F)cc1Cl [Example 179, N-(2-chloro-4-(trifluoromethyl)phenyl)-2-(5-ethyl-6-(4-(5-hydroxy-6-methylpyrimidine-4-carbonyl)piperazin-1-yl)-7-oxo-2-(5-(2,2,2-trifluoroethyl)-4,5,6,7-tetrahydrothieno[3,2-c]pyridin-2-yl)-[1,2,4]triazolo[1,5-a]pyrimidin-4(7H)-yl)acetamide]	–
1 to 100	CCc1c(N2CCN(C(=O)c3ncnc(C)c3O)CC2)c(=O)n2nc(-c3ccc4c(c3)CN(CC(F)(F)F)CCO4)nc2n1CC(=O)Nc1ccc(C(F)(F)F)cc1Cl [Example 180, N-(2-chloro-4-(trifluoromethyl)phenyl)-2-(5-ethyl-6-(4-(5-hydroxy-6-methylpyrimidine-4-carbonyl)piperazin-1-yl)-7-oxo-2-(4-(2,2,2-trifluoroethyl)-2,3,4,5-tetrahydrobenzo[f][1,4]oxazepin-7-yl) -[1,2,4]triazolo[1,5-a]pyrimidin-4(7H)-yl)acetamide]	–
1 to 100	[2H]C([2H])([2H])Sc1ccc(NC(=O)Cn2c(CC)c(N3CCN(C(=O)c4ncnc(C)c4O)CC3)c(=O)n3nc(C4=CC5CC5C4)nc23)cc1 (stereo not shown) [Example 181, 2-(2-(Bicyclo[3.1.0]hex-2-en-3-yl)-5-ethyl-6-(4-(5-hydroxy-6-methylpyrimidine-4-carbonyl)piperazin-1-yl)-7-oxo-[1,2,4]triazolo[1,5-a]pyrimidin-4(7H)-yl)-N-(4-((methyl-d3)thio)phenyl)acetamide]	–
1 to 100	CCc1c(N2CCN(C(=O)c3ncnc(C)c3O)CC2)c(=O)n2nc(/C=C/C(=O)N(C)C)nc2n1CC(=O)Nc1ccc(C(F)(F)F)cc1Cl [Example 182, (E)-3-(4-(2-((2-chloro-4-(trifluoromethyl)phenyl)amino)-2-oxoethyl)-5-ethyl-6-(4-(5-hydroxy-6-methylpyrimidine-4-carbonyl)piperazin-1-yl)-7-oxo-4,7-dihydro-[1,2,4]triazolo[1,5-a]pyrimidin-2-yl)-N,N-dimethylacrylamide]	–
–	CCc1c(N2CCN(C(=O)c3ncccc3O)CC2)c(=O)n2nc(C3=CC4COCC4C3)nc2n1CC(=O)Nc1ccc(S(F)(F)(F)(F)F)cc1 (stereo not shown) [Example 187, 2-(5-ethyl-6-(4-(3-hydroxypicolinoyl)piperazin-1-yl)-7-oxo-2-(3,3a,4,6a-tetrahydro-1H-cyclopenta[c]furan-5-yl)-[1,2,4]triazolo[1,5-a]pyrimidin-4(7H)-yl)-N-(4-(pentafluoro-λ^6-sulfaneyl)phenyl) acetamide]	1 to 100
1 to 100	CCc1c(N2CCN(C(=O)c3ncnc(C)c3O)CC2)c(=O)n2nc(C3=CC4COCC4C3)nc2n1CC(=O)Nc1ccc(S(F)(F)(F)(F)F)cc1 (stereo not shown) [Example 189, 2-(5-ethyl-6-(4-(5-hydroxy-6-methylpyrimidine-4-carbonyl)piperazin-1-yl)-7-oxo-2-(3,3a,4,6a-tetrahydro-1H-cyclopenta[c]furan-5-yl)-[1,2,4]triazolo[1,5-a]pyrimidin-4(7H)-yl)-N-(4-(pentafluor o-λ^6-sulfaneyl)phenyl)acetamide]	–
